Experimental data from US8735423B2, “Bicyclic compounds as α4β2 nicotinic acetylcholine receptor ligands” (priority 2009, dated 2014).

Experiments:
[1] = Rodent Pharmacokinetic Study; conditions: Wistar, in vivo, Wister rat male
Procedure: Rodent Pharmacokinetic Study
Male wistar rats (230-280 grams) obtained from NIN (National Institute of Nutrition, Hyderabad, India) were used as an experimental animal. Three to five animals were housed in each cage. Animals were kept fasted over night and maintained on a 12 hours light/dark cycle. […]
At each time point blood was collected by jugular vein. Plasma was stored frozen at −20° C. until analysis. The concentrations of the NCE compound in plasma were determined using LC-MS/MS method. Schedule time points: Pre dose 0.25, 0.5, 1, 1.5, 2, 3, 4, 6, 8, 10, 12 and 24 hours after dosing (n=3). The NCE compounds were quantified in plasma by validated LC-MS/MS method using solid phase extraction technique. NCE compounds were quantified in the calibration range of 1-2000 ng/mL in plasma. Study samples were analyzed using calibration samples in the batch and quality control samples spread across the batch. Pharmacokinetic parameters Cmax, Tmax, AUCs, T112 and Bioavailability were calculated by non-compartmental model using software WinNonlin version 5.0.1.

[2] = tested on: Male Wister rats; test: Reversal of Formalin Induced Nociception; type: in vivo; conditions: rat, p.o., formalin 5% v/v subplantar
Procedure: Reversal of Formalin Induced Nociception
The anti-nociceptive properties of compounds of this invention were evaluated using a model of pain: the Formalin Induced Nociception model. Male Wister rats (230-280 grams) obtained from N. I. N. (National Institute of Nutrition, Hyderabad, India) was used as experimental animals.
Rats were habituated for 20 minutes in the arena before the experiment was started. Duration of licks, bites and flinches were noted from 0-10 minutes and 20-35 minutes after administration of formalin, subplantar into the right hind paw at concentrations of 5% v/v. 50 μL of water for injection was injected into the right hind paw of the rats of the sham group. Compounds of this invention were administered orally prior to formalin administration.

[3] = tested on: High Fat Fed Rats; test: Effect of Test Compounds on Body Weight Gain in High Fat Fed Rats; type: in vivo, rat; conditions: high fat diet fed Sprague Dawley rats, oral for 14 days
Text: Effect of Test Compounds on Body Weight Gain in High Fat Fed Rats
The body weight gain suppressing properties of compounds of this invention were studied using a animal model of obesity.
Male Sprague Dawley rats (150-160 grams) obtained from Reliance Life Sciences, India were used as experimental animals. Rats were fed with control diet (normal pellet diet) and lard based high fat diet (45% kcal diet) for 7-8 weeks. High fat diet fed animals was randomized according to their body weights. The animals were housed in a group of 3-4 per cage. One group of 10 rats received vehicle (2 mL/Kg) orally and another set of animals received compound of the formula (I) orally for 14 days. Body weight of the animals was recorded for first three consecutive days then it was recorded twice weekly. Weighed amount of food was given to the animals and food intake was recorded every 24 hour for the entire study period.
Following compound shown positive effects indicating the decrease in the body weight gain.

[4] = tested on: Male Sprague Dawley rats; test: DRL-72s model of animal depression; type: in vivo; conditions: rat
Procedure: The antidepressant properties of compounds of this invention were evaluated using a model of animal depression: the DRL-72s model. Male Sprague Dawley rats were used as experimental animals. Rats are trained to lever press for a 4″ access to 0.025 mL of water for each correct response during daily 60 minute sessions. All testing takes place on weekdays only. At the beginning of each session, the house light is illuminated and remains lit until the session ends. No other stimuli are presented during testing. After successful lever press training, rats are then required to respond under a DRL-24 second schedule, where only lever presses that are separated by 24 seconds are reinforced. Upon stable responding on a DRL-24 second schedule (5-10 sessions), rats are trained on a DRL-72 second schedule until responding stabilizes at approximately 15% efficiency (approx 25-35 sessions). Specifically, rats receive a reinforcer for each response that is emitted at least 72 seconds after the previous response (IRT). […] Efficiency is recorded as number of reinforced responses÷total number of responses. After stable baseline responding is achieved, defined as responding for 4 consecutive sessions with no more than 10% variability, animals begin drug testing. Animals receive drug no more than 1× per week.

[5] = tested on: Male Wistar rats; test: Acute Food Intake Study (animal model of hyperphagia); type: in vivo; conditions: rat, oral
Procedure: The appetite suppressing properties of compounds of this invention were studied using an animal model of hyperphagia.
Male Wistar rats (200-210 grams) obtained from Raj Biotech, India were used as experimental animals. The experiment consisted of 6 days. The rats were adapted to the 18 hour fasting and 6 hour feeding pattern. The animals were housed in a group of three in the cages provided with the fasting grills and were fasted for 18 hours. After 18 hour fasting the rats were separated and placed individually in a cage. Weighed amount of feed was provided to rats for 6 hour and the feed intake at 1, 2, 4 and 6 hours was recorded. Again the rats were regrouped and fasted for 18 hour. The above procedure was followed for 5 days. The average cumulative food intake by the rats on the last 3 days was calculated. Animals were randomised on the basis of their last three days food intake.
One group of 8 rats received vehicle (2 mL/Kg) orally and another set of animals received compound of the formula (I) orally. Then the rats were given access to food and the food intake at 1, 2, 4 and 6 hours was recorded. The food intake by the rats treated with test compound was compared with the vehicle treated group by using students ‘t’ test.
Following compound shown positive effects indicating the suppression of food intake i.e. hypophagia like effects.

For `Cl.Cl.Clc1cncc(OCC2CC3CC3N2)c1` (stereo not shown) [Example 7, 3-(5-Chloropyridin-3-yloxymethyl)-2-azabicyclo[3.1.0]hexane dihydrochloride], the AUC(0-t) ([1]; iv, I.V, 5 mg/kg) was 2390 ± 196 ng·h/mL, the Cmax ([1]; iv, I.V, 5 mg/kg) was 2340 ± 388 ng/mL and the Tmax ([1]; iv, I.V, 5 mg/kg) was 4.8 min. For the same compound, the half-life ([1]; iv, I.V, 5 mg/kg) was 51.6 ± 1.8 min, the bioavailability ([1]; po, P.O 5 mg/kg vs I.V 5 mg/kg) was 50 ± 13% and the AUC(0-t) ([1]; po, P.O, 5 mg/kg) was 1190 ± 201 ng·h/mL. For the same compound, the Cmax ([1]; po, P.O, 5 mg/kg) was 949 ± 200 ng/mL, the Tmax ([1]; po, P.O, 5 mg/kg) was 15 min and the half-life ([1]; po, P.O, 5 mg/kg) was 64.2 ± 2.4 min. The “Dose (reversal of formalin induced nociception)” value [2] was “≦30 mg/kg, p.o”.
In the case of `Cl.c1cncc(OCC2CC3CC3N2)c1` (stereo not shown) [Example 1, 3-(Pyridin-3-yloxymethyl)-2-azabicyclo[3.1.0]hexane hydrochloride], the “% Reduction in body weight gain compared to vehicle (Day 14)” value [3] is reported as 3.6%, the Inference [3] is reported as “Active” and the AUC(0-t) ([1]; iv, I.V, 5 mg/kg) is reported as 4050 ± 679 ng·h/mL. The Cmax ([1]; iv, I.V, 5 mg/kg) was 3180 ± 38 ng/mL, the Tmax ([1]; iv, I.V, 5 mg/kg) was 4.8 min and the half-life ([1]; iv, I.V, 5 mg/kg) was 116 ± 37.2 min. It also gave a bioavailability ([1]; po, P.O 15 mg/kg vs I.V 5 mg/kg) of 92 ± 16%, an AUC(0-t) ([1]; po, P.O, 15 mg/kg) of 10900 ± 646 ng·h/mL and a Cmax ([1]; po, P.O, 15 mg/kg) of 7610 ± 1660 ng/mL. The Tmax ([1]; po, P.O, 15 mg/kg) was 15 min, the half-life ([1]; po, P.O, 15 mg/kg) was 251 ± 91.8 min and the “Dose mg/kg, p.o. (DRL-72s)” value [4] was “≦10 mg/kg, p.o”. The “Dose (reversal of formalin induced nociception)” value [2] was “≦10 mg/kg, p.o”, the Inference [5] was “Active” and the “% Suppression of food intake compared to vehicle” value (“% Suppression of food intake” for short) ([5]; 1 Hour) was 32.25%. The “% Suppression of food intake” value ([5]; 2 Hour) was 25.40%, the “% Suppression of food intake” value ([5]; 4 Hour) was 23.08% and the “% Suppression of food intake” value ([5]; 6 Hour) was 15.37%.
